# In publication PMC5030144 (Nature chemical biology, 2016):
# Several values for one entry are separate records, joined by “and”; a condition that tells them apart may be missing. Equal values may be shown once.
# Assays:
# [1] = target: T1, RMS3 (Pisum sativum, UniProt A0A109QYD3); test: Intrinsic tryptophan fluorescence, apparent dissociation coefficient; format: binding; conditions: apparent Kd from intrinsic fluorescence, mean ± SE of two replicates
# T1 sequence (A0A109QYD3 1-267): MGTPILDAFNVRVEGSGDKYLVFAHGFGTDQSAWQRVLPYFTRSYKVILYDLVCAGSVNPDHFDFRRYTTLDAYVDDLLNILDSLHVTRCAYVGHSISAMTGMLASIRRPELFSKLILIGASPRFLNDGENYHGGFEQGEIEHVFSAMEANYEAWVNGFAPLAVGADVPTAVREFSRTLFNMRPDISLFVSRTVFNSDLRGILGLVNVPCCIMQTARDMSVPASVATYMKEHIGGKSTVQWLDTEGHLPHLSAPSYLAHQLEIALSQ
# [2] = target: T1, RMS3; test: Differential scanning fluorimetry; format: binding; conditions: DSF
# [3] = target: T1, RMS3; test: Competition test with; format: biochemical
SMILES,Kd [1],shift in RMS3 melting temperature (destabilization) [2],Kd ([1]; Kd),mode of inhibition of (±)-GC242 hydrolysis ([3]; RMS3),"Ki ([3]; RMS3, competition test with (±)-GC242, mean ± SE of three replicates)"
CC1=C(C)C(OC=C2C(=O)OC3c4ccccc4CC23)OC1=O (racemic) [(±)-3’-Me-GR24],30.9 ± 5.2 µM,,,,
O=C1C=CC(OC=C2C(=O)OC3c4ccccc4CC23)O1 (racemic) [(±)-4’-desmethyl-2’-epi-GR24],296 ± 27.9 µM,no shift,,,
"Cc1cc(=O)oc2c(F)c(O)c(F)cc12 [DiFMU, 6,8-difluoro-7-hydroxy-4-methylcoumarin]",,small stabilization,20 µM and 19.9 µM,,
O=C1OC2c3ccccc3CC2/C1=C\O (racemic) [(±)-ABC],271 ± 29.8 µM,no shift,,competitive inhibitor,28.8 ± 17.6 µM
